In patent US12479847B2 (DANA-FARBER CANCER INSTITUTE, INC., priority 2019, dated 2025) one finds remaining binding data, which are given here for three compounds.

Holding throughout (assay): KINOMEscan (ScanMAX) kinase profiling
What all share (format): binding

The target in experiment [1] is T1, panel of 468 kinases (Homo sapiens, UniProt Q92630).
T1 construct: purchased KINOMEscan (ScanMAX) service
T1 sequence (Q92630 1-601): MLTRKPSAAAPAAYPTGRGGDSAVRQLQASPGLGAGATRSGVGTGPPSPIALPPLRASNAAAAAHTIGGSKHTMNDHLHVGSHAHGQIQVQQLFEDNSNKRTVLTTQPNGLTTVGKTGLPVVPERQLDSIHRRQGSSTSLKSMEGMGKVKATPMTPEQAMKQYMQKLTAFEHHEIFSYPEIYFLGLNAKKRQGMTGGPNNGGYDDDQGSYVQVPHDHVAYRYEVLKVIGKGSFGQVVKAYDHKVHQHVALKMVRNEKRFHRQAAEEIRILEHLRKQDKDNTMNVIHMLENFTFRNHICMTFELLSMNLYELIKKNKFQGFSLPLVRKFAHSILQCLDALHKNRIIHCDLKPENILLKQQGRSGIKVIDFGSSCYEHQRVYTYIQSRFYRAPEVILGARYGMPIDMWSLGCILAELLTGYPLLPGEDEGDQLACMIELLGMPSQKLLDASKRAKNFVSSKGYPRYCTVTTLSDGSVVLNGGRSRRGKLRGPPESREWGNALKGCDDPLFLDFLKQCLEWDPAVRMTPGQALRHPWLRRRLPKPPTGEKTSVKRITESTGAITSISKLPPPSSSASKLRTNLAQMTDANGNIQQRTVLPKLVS
Particulars: DYRK2; 1 μM; read-out: % control.

Experiment [2] has as its target T2, panel of 468 kinases (Homo sapiens, UniProt Q15759).
T2 construct: purchased KINOMEscan (ScanMAX) service
Particulars: p38-beta; 1 μM; read-out: % control.

Experiment [3] addresses T3, panel of 468 kinases (Homo sapiens, UniProt P54760).
T3 construct: purchased KINOMEscan (ScanMAX) service
T3 sequence (P54760 16-987): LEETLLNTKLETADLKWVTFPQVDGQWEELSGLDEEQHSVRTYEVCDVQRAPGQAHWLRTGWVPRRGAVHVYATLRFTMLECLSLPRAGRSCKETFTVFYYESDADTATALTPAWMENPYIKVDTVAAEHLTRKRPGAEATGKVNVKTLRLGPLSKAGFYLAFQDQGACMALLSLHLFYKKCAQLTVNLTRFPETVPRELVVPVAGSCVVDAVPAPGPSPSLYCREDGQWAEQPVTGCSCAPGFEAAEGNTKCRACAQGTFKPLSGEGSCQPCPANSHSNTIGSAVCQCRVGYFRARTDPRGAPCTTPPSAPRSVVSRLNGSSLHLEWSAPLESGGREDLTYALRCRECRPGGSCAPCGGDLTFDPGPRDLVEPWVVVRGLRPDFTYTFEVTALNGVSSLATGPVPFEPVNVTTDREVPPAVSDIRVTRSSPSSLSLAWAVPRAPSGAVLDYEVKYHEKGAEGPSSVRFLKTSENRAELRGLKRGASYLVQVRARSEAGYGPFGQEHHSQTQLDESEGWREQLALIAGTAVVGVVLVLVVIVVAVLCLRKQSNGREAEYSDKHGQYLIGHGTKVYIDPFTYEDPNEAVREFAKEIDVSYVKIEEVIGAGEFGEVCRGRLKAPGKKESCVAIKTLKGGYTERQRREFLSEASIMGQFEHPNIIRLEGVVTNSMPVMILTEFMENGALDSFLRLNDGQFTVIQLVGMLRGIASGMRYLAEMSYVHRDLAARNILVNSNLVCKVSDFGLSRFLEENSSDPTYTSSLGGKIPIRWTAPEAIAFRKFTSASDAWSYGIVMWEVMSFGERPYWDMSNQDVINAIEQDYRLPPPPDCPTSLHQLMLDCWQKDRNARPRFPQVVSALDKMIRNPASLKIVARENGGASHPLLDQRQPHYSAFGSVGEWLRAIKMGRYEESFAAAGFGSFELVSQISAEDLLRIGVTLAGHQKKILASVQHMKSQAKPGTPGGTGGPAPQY
Particulars: EPHB4; 1 μM; read-out: % control.

Experiment [4] addresses T4, panel of 468 kinases (Homo sapiens, UniProt Q8TD08).
T4 construct: purchased KINOMEscan (ScanMAX) service
T4 sequence (Q8TD08 1-544): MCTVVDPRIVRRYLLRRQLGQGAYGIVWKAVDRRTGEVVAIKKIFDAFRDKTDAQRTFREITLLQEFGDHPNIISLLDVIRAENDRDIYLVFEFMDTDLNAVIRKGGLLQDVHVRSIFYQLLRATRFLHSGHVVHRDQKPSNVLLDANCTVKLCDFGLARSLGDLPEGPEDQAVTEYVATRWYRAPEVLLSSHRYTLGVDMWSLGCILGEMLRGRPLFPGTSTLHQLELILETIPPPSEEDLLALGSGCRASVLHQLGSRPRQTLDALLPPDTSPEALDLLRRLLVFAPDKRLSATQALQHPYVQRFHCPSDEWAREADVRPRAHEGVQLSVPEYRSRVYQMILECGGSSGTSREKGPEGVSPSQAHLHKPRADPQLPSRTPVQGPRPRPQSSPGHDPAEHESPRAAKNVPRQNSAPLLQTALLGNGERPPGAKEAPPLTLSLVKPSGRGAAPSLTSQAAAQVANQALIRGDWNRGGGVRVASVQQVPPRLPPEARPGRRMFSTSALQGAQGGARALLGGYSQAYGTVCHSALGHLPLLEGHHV
Particulars: ERK8; 1 μM; read-out: % control.

Experiment [5] concerns the target T5, panel of 468 kinases (Homo sapiens, UniProt O14733).
T5 construct: purchased KINOMEscan (ScanMAX) service
T5 sequence (O14733 1-419): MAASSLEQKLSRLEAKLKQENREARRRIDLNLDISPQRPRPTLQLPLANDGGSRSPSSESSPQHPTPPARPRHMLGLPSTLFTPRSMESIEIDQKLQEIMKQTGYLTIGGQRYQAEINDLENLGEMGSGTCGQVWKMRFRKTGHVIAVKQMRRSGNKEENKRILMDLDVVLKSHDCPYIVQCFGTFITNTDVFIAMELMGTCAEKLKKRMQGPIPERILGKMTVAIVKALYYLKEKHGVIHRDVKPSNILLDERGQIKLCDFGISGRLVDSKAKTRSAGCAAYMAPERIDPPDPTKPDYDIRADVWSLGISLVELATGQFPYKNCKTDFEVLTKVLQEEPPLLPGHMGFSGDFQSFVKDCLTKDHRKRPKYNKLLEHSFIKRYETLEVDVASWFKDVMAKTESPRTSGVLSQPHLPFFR
The conditions noted are these: MKK7; 1 μM; read-out: % control.

Structures are written as SMILES.

T2 sequence (Q15759 whole entry): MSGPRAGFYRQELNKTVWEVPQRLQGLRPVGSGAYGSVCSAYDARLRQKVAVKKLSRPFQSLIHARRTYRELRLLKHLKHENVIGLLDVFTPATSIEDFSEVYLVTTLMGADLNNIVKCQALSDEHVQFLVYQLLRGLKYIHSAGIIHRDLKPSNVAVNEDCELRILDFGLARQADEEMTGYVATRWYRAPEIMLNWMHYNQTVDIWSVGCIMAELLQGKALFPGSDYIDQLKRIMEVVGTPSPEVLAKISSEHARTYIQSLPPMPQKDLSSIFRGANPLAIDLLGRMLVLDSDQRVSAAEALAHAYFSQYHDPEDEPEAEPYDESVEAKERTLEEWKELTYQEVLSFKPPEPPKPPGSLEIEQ

Consider `CNc1nc(Nc2ccc(S(=O)(=O)N3CCC(N4CCOCC4)CC3)cc2OC)nc2[nH]cc(Cl)c12` [Compound 12, 5-chloro-N2-(2-methoxy-4-((4-morpholinopiperidin-1-yl)sulfonyl)phenyl)-N4-methyl-7H-pyrrolo[2,3-d]pyrimidine-2,4-diamine], for which the remaining binding at 1 µM at panel of 468 kinases [1] stood at 13%; on panel of 468 kinases [2], 100%; on panel of 468 kinases [3] it was 100%; on panel of 468 kinases [4] it was 100%; on panel of 468 kinases [5], 100%.
Consider `CNc1nc(Nc2ccc(C(=O)N3CCC(N4CCOCC4)CC3)c3c2OCO3)nc2[nH]cc(Cl)c12` [Compound 75, (7-((5-chloro-4-(methylamino)-7H-pyrrolo[2,3-d]pyrimidin-2-yl)amino)benzo[d][1,3]dioxol-4-yl)(4-morpholinopiperidin-1-yl)methanone], for which the remaining binding at 1 µM is 14% at panel of 468 kinases [1]; 100% at panel of 468 kinases [2]; 100% at panel of 468 kinases [3]; 100% at panel of 468 kinases [4]; 96% at panel of 468 kinases [5].
As to `CNc1nc(Nc2ccc(P3(=O)CCN(C4CCOCC4)CC3)cc2OC)nc2[nH]cc(Cl)c12` [Compound 77, 4-(4-((5-chloro-4-(methylamino)-7H-pyrrolo[2,3-d]pyrimidin-2-yl)amino)-3-methoxyphenyl)-1-(tetrahydro-2H-pyran-4-yl)-1,4-azaphosphinane 4-oxide], the remaining binding at 1 µM was determined as 47% at panel of 468 kinases [1]; 100% at panel of 468 kinases [2]; 100% at panel of 468 kinases [3]; 100% at panel of 468 kinases [4]; 100% at panel of 468 kinases [5].
